# Results published in ChEMBL document CHEMBL5360595, “Ligand-Directed Photodegradation of Interacting Proteins: Oxidative HER2/HER3 Heterodimer Degradation with a Lapatinib-Derived Photosensitizer” (J Med Chem, 2023).
# Activity calls are given as the source filed them. No cut-off for these calls is given here.
# Legend:
# [1] = target: Mitogen-activated protein kinase; ERK1/ERK2 (Homo sapiens) (UniProt P27361+P28482); experiment: Inhibition of Erk1/2 phosphorylation in human MDA-MB-453 cells at 0.5 uM preincubated for 24 hrs followed by irradiation with 400 to 700 nm 100 mW/cm2 LED light for 10 min by Western blot analysis; type: cell-based; settings: time 1450.0 min
# Sequence of Mitogen-activated protein kinase; ERK1/ERK2 (Homo sapiens) (P27361 whole entry, looked up): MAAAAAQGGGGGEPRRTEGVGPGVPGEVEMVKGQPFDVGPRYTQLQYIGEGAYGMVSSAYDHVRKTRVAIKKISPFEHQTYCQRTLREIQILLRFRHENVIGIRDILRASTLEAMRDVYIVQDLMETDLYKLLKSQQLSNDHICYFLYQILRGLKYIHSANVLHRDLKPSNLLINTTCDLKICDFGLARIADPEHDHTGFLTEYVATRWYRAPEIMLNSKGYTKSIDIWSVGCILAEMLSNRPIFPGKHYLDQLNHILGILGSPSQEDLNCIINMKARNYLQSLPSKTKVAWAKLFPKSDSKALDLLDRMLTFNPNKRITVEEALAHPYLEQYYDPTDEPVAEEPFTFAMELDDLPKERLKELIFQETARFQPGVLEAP
# Sequence of Mitogen-activated protein kinase; ERK1/ERK2 (Homo sapiens) (P28482 whole entry, looked up): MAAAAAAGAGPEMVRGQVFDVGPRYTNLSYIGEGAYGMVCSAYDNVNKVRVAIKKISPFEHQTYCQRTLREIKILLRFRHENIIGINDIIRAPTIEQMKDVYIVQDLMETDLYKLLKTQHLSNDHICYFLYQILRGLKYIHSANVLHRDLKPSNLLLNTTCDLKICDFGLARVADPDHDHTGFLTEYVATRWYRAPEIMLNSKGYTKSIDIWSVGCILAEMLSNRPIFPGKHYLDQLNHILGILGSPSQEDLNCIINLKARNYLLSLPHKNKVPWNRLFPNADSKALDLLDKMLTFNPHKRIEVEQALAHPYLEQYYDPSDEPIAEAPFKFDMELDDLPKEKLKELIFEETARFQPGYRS
# MDA-MB-453 [2] = experiment: Photocytotoxicity against human MDA-MB-453 cells cultured as 3D spheroids assessed as reduction in diameter of tumor spheroid size at 0.5 to 10 uM pretreated with compound for 10 mins and measured after 72 hrs in presence of 400 to 700 nm 100 mW/cm2 LED light by bright-field microscopic analysis; type: functional, cell-based; settings: dose 0.5-10 µM, time 4330.0 min
# [3] = target: T1, ErbB-2/ErbB-3 heterodimer (Homo sapiens, UniProt P04626+P21860); experiment: Induction of HER2/HER3 degradation in human MDA-MB-453 cells assessed as decrease in HER2/HER3 heterodimer preincubated for 24 hrs followed by irradiation with 400 to 700 nm 100 mW/cm2 LED light for 10 min by Co-Immunoprecipitation Analysis; type: cell-based; settings: time 1450.0 min
# T1 sequence (P04626 whole entry): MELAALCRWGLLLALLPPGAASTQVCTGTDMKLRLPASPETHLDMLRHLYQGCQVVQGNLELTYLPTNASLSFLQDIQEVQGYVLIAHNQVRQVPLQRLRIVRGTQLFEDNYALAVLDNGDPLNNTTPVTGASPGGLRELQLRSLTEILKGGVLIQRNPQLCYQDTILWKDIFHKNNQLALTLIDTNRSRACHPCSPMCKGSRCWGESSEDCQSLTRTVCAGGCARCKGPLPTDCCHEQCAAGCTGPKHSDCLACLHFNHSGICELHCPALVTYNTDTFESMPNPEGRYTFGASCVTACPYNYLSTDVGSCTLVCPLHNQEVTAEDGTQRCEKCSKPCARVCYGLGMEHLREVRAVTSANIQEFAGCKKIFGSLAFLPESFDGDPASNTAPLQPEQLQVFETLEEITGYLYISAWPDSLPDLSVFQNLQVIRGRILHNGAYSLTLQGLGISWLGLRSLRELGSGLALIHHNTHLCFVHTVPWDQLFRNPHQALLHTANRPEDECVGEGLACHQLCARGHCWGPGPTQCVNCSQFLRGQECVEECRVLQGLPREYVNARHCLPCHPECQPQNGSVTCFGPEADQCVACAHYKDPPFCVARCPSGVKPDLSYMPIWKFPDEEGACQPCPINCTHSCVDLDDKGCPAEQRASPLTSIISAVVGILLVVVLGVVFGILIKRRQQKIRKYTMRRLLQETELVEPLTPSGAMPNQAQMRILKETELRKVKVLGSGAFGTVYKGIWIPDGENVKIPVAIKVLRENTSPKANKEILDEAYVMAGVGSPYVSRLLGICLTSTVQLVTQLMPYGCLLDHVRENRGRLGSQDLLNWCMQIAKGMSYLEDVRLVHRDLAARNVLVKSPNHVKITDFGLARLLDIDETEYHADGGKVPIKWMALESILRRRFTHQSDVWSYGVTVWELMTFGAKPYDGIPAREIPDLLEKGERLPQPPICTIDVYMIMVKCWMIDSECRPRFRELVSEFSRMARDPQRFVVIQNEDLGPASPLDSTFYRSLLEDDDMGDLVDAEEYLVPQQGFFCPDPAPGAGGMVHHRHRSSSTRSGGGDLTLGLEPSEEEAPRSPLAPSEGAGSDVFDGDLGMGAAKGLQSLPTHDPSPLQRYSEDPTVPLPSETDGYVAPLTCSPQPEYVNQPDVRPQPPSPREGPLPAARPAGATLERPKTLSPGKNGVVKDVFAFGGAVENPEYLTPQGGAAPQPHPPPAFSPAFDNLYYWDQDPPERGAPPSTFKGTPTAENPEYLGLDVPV
# T1 sequence (P21860 whole entry): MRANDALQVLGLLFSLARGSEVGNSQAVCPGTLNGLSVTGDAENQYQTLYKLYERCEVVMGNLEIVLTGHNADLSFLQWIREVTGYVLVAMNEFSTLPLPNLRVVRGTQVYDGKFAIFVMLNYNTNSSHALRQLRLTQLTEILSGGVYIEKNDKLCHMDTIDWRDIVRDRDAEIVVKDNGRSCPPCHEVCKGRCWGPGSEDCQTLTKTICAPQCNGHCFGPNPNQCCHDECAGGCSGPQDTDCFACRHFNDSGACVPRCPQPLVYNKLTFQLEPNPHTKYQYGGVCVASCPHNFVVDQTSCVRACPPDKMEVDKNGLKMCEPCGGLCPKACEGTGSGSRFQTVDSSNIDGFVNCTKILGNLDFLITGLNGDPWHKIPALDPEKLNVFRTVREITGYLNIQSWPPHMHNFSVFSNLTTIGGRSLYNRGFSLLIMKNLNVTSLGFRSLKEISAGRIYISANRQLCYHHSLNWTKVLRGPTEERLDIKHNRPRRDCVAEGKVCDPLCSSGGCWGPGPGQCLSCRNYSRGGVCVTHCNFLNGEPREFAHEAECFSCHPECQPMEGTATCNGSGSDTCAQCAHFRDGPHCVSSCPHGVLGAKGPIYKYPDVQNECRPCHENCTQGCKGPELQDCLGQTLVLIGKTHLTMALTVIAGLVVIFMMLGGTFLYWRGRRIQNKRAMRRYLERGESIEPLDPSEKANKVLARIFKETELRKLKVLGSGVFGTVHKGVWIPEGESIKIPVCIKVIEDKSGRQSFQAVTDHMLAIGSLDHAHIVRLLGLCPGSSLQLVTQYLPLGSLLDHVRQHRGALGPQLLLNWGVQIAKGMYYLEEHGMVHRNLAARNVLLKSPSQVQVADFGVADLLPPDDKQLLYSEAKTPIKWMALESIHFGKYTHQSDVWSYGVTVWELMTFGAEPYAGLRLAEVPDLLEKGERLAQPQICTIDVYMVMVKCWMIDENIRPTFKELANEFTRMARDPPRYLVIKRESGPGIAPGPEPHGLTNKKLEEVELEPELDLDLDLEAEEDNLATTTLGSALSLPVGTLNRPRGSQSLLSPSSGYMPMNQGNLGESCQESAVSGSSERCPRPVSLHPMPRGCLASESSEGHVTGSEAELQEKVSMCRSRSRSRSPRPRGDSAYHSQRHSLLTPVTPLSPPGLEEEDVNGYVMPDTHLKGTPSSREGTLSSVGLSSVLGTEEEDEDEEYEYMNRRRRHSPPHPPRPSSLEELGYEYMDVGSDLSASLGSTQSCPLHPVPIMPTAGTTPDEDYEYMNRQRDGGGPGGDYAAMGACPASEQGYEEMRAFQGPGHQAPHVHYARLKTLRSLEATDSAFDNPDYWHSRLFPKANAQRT
# MDA-MB-453 [4] = experiment: Induction of intracellular ROS generation in human MDA-MB-453 cells assessed as increase in green fluorescence signal at 0.5 uM pretreated for 6 hrs followed by irradiation with 400 to 700 nm 100 mW/cm2 LED light for 10 min by DCFH2-DA staining based flow cytometry analysis; type: functional, cell-based; settings: time 370.0 min
# MDA-MB-453 [5] = experiment: Induction of apoptosis in human MDA-MB-453 cells assessed as increase in BAX/Bcl-2 ratio at 0.5 uM preincubated for 24 hrs followed by irradiation with 400 to 700 nm 100 mW/cm2 LED light for 10 min by Western blot analysis; type: functional, cell-based; settings: time 1450.0 min
# MDA-MB-453 [6] = experiment: Photocytotoxicity against human MDA-MB-453 cells cultured as 3D spheroids assessed as reduction in cell viability incubated for 72 hrs by CCK-8 assay; type: functional, cell-based; settings: MDA-MB-453, 72 h
# MDA-MB-453 [7] = experiment: Photocytotoxicity against human MDA-MB-453 cells cultured as 3D spheroids assessed as reduction in diameter of tumor spheroid size at 0.5 to 10 uM incubated for 72 hrs by bright-field microscopic analysis; type: functional, cell-based; settings: dose 0.5-10 µM
# [8] = target: Serine/threonine-protein kinase AKT (Homo sapiens) (UniProt P31751+Q9Y243+P31749); experiment: Inhibition of AKT phosphorylation in human MDA-MB-453 cells at 0.5 uM preincubated for 24 hrs followed by irradiation with 400 to 700 nm 100 mW/cm2 LED light for 10 min by Western blot analysis; type: cell-based; settings: time 1450.0 min
# [9] = Photocytotoxicity against human Lapatinib-resistant MDA-MB-453 assessed as reduction in cell viability incubated for 72 hrs in presence of LED light irradiation of 100 mW/cm2 at 400 to 700 nm by CCK-8 assay; type: functional, cell-based; settings: Lapatinib-resistant MDA-MB-453, light or radiation study
# MDA-MB-453 [10] = experiment: Photocytotoxicity against human MDA-MB-453 cells cultured as 3D spheroids assessed as reduction in cell viability pretreated for 10 mins and measured after 72 hrs in presence of 400 to 700 nm 100 mW/cm2 LED light by CCK-8 assay; type: functional, cell-based
# [11] = target: Receptor tyrosine-protein kinase erbB-2 (Homo sapiens, UniProt P04626); experiment: Inhibition of HER2 (unknown origin) incubated for 40 mins by Kinase-Glo Max assay; type: cell-based, Sf9
# Sequence of Receptor tyrosine-protein kinase erbB-2 (P04626 whole entry): as the sequence (P04626 whole entry) above
# [12] = Photocytotoxicity against human Lapatinib-resistant MDA-MB-453 assessed as inhibition of cell growth under hypoxic condition incubated for 72 hrs in presence of LED light irradiation of 100 mW/cm2 at 400 to 700 nm by CCK-8 assay; type: functional, cell-based; settings: Lapatinib-resistant MDA-MB-453, light or radiation study
# MDA-MB-453 [13] = experiment: Photocytotoxicity against human MDA-MB-453 cells cultured as 3D spheroids assessed as increase in dead cells by measuring red fluorescence intensity pretreated with compound for 10 mins and measured after 72 hrs in presence of 400 to 700 nm […] LED light by calcein-AM/PI staining based fluorescence analysis; type: functional, cell-based; settings: time 4330.0 min
# MDA-MB-453 [14] = experiment: Induction of apoptosis in human MDA-MB-453 cells assessed as decrease in Bcl-2 expression at 0.5 uM preincubated for 24 hrs followed by irradiation with 400 to 700 nm 100 mW/cm2 LED light for 10 min by Western blot analysis; type: functional, cell-based; settings: time 1450.0 min
# [15] = target: T1, ErbB-2/ErbB-3 heterodimer; experiment: Induction of HER2/HER3 degradation in human MDA-MB-453 cells assessed as increase in HER2/HER3 heterodimer incubated for 24 hrs by Co-immunoprecipitation analysis; type: cell-based
# MDA-MB-453 [16] = experiment: Induction of apoptosis in human MDA-MB-453 cells assessed as increase in cleaved caspase-3 expression at 0.5 uM preincubated for 24 hrs followed by irradiation with 400 to 700 nm 100 mW/cm2 LED light for 10 min by Western blot analysis; type: functional, cell-based; settings: time 1450.0 min
# MDA-MB-453 [17] = experiment: Photocytotoxicity against human MDA-MB-453 cells cultured as 3D spheroids assessed as reduction in cell density at 0.5 to 10 uM incubated for 72 hrs by bright-field microscopic analysis; type: functional, cell-based; settings: dose 0.5-10 µM
# [18] = target: T1, ErbB-2/ErbB-3 heterodimer; experiment: Induction of HER2/HER3 degradation in human MDA-MB-453 cells assessed as HER2 degradation preincubated for 24 hrs followed by irradiation with 400 to 700 nm 100 mW/cm2 LED light for 10 min by Western blot analysis; type: cell-based
# [19] = target: T1, ErbB-2/ErbB-3 heterodimer; experiment: Induction of HER2/HER3 degradation in human MDA-MB-453 cells assessed as HER3 degradation preincubated for 24 hrs followed by irradiation with 400 to 700 nm 100 mW/cm2 LED light for 10 min by Western blot analysis; type: cell-based
# [20] = Photocytotoxicity against human Lapatinib-resistant MDA-MB-453 cells assessed as reduction in cell viability by CCK-8 assay; type: functional, cell-based
# MDA-MB-453 [21] = experiment: Induction of intracellular ROS generation in human MDA-MB-453 cells assessed as increase in green fluorescence signal at […] pretreated for 6 hrs followed by irradiation with 400 to 700 nm 100 mW/cm2 LED light for 10 min by DCFH2-DA staining based flow cytometry analysis; type: functional, cell-based; settings: time 370.0 min
smiles,measurement,setting,value
CC[n+]1c(/C=C/c2ccc(-c3ccc4ncnc(Nc5ccc(OCc6cccc(F)c6)c(Cl)c5)c4c3)s2)sc2ccccc21,inhibition,[1],Active
same,Activity,MDA-MB-453 [2],Active
same,Activity,[3],Active
same,Activity,MDA-MB-453 [4],Active
same,Activity,MDA-MB-453 [5],Active
same,IC50,MDA-MB-453 [6],> 20000 nM
same,Activity,MDA-MB-453 [7],inactive
same,inhibition,[8],Active
same,IC50,[9],226 nM
same,IC50,MDA-MB-453 [10],2130 nM
same,IC50,[11],105 nM
same,IC50,[12],585 nM
same,Activity,MDA-MB-453 [13],Active
same,Activity,MDA-MB-453 [14],Active
same,Activity,[15],inactive
same,Activity,MDA-MB-453 [16],Active
same,Activity,MDA-MB-453 [17],inactive
same,DC50,[18],520 nM
same,Activity,[18]; time 1450.0 min,Dose-Dependent Effect
same,DC50,[19],584 nM
CS(=O)(=O)CCNCc1ccc(-c2ccc3ncnc(Nc4ccc(OCc5cccc(F)c5)c(Cl)c4)c3c2)o1 [LAPATINIB],IC50,MDA-MB-453 [6],> 20000 nM
same,IC50,[20],> 5000 nM
O=S(=O)(O)c1cc(O)c(O)c(S(=O)(=O)O)c1,Activity,MDA-MB-453 [21],Active
CC[n+]1c(/C=C/c2ccc(-c3ccc4ncnc(Nc5ccc(OCc6cccc(F)c6)c(Cl)c5)c4c3)o2)sc2ccccc21,IC50,[9],1560 nM
same,IC50,[11],50 nM
